How the values were obtained:
anemic rats = assay: Stimulation of erythropoiesis in iron-deficient anemic rats; assay type: in vivo, Sprague Dawley rats
Procedure: HEMOLINK™ was evaluated for the stimulation of erythropoiesis in anemic rats. Male Sprague Dawley rats were made anemic on an iron deficient diet over a 4 week period. Six of the anemic rats received two infusions via tail vein injection one week apart (dose I and dose II) of 10% of total blood volume of 9.8 g/dL HEMOLINK™. Nine anemic rats received an equivalent amount of parenteral iron (INFJFER™, Sabex) per kg body weight for comparison. Both solutions contained 342.9 mg/L iron. The iron-deficient anemia of the HEMOLINK™ group was characterized by a pretreatment serum iron level of […] (n=1), a reticulocyte count of 0.39±0.08×10^12/L, a red blood cell count of 1.85±0.35×10^12/L, a 6.5±1.26% hematocrit and a total blood hemoglobin of 30.5±4.38 g/L.
Statistical comparisons in FIG. 14 are based on one way analyses of variance, followed by Bonefoni comparison post-hoc tests. The effect of HEMOLINK™ infusion on reticulocyte count, red blood cell count, total hemoglobin and hematocrit in anemic male rats was compared to iron infusion (INFUFER™; an iron-containing pharmaceutical composition) and to pretreatment levels. Significant differences are indicated by *p<0.05 compared with INFUFER™ and **p<0.01 compared with pretreatment anemic rats.

BFU-E = assay: Colony formation assay (CFA), cord blood LDMNC: BFU-E colonies; assay type: cell-based, human; conditions: for fold increase in BFU-E number over untreated controls (no addition) at 0.2 U/ml Epo / fold increase in BFU-E at 5% O2: 1.0 mg/ml HAo or HEMOLINK; for fold increase in BFU-E number over untreated controls (no addition) at 0.2 U/ml Epo: 250 μM FeCl3; for fold increase in BFU-E at 5% O2: 5% O2, 2 U/ml Epo, relative to untreated controls at ambient O2; for BFU-E progenitor number, fold increase: 2 U/ml Epo, ambient O2, vs vehicle control
Procedure: This technique, referred to as the colony formation assay (CFA), is the most widely used biological assay to identify and enumerate erythroid progenitors present in hematopoietic tissue such as blood and bone marrow. Cell populations containing erythroid progenitors are plated in semi-solid suspensions of methyl cellulose, agar, low melting agarose or related substances in nutrient culture medium containing 1-3 U/ml Epo and 10 ng/ml IL-3 to specifically stimulate erythroid progenitors. Plates are incubated at 37° C. for 14 days during which time the erythroid progenitors form characteristic hemoglobinized (red) colonies. Two distinct but related erythroid progenitors can be distinguished based on colony size and morphology: BFU-E, the most primitive recognizable erythroid progenitor forms large multilobular colonies whereas the more mature CFU-E forms smaller spherical colonies.
Adult hemoglobin was purified according to U.S Pat. Nos. 5,439,591 and 5,545,328 to obtain HAo and HEMOLINK™ was prepared from HAo according to U.S. Pat. No. 5,532,352. Human umbilical cord blood intended for discard was collected from the umbilical vein of placentas immediately postpartum into 10 ml vacutainer tubes containing 143 USP units/ml sodium heparin. Low density mononuclear cells were separated from red blood cells by centrifugation over a 1.077 g/ml density gradient Cells removed from the plasma/density gradient interface were incubated overnight in a tissue culture flask with 10 ml cell culture medium containing 10% fetal bovine serum, and non-adherent LDMNC were further purified with an additional density gradient step. The LDMNC were then plated into colony formation assays (CFA) on the second day of isolation. In the CFA, LDMNC were plated at a density of 1×10^5 cells/ml in Iscoves modified Dulbeccos cell culture medium containing 0.8% methyl-cellulose, 30% fetal bovine serum, 1% bovine serum albumin, 0.1 mM 2-mercaptoethanol and 2 mM L-glutamine. Unless indicated otherwise, under standard CFA conditions 2 U/ml Epo and 10 ng/ml IL-3 are added to the formulation to stimulate hematopoietic progenitor growth, specifically BFU-E, CFU-E and CFU-GM.
Each condition was tested in duplicate in from 2-18 independent experiments. Cultures were maintained in a humidified incubator at 37° C., 5% CO2 and ambient oxygen tensions. The number of hematopoietic progenitors was scored between days 13-15 by counting the number and types of colonies present.
Erythroid progenitor colony formation assays were conducted as described in Example 1 except that cultures were incubated at either ambient oxygen tensions (˜20% O2) or 5% O2. The reduced oxygen tension of 5% O2 approximates the physiological intravascular oxygen tension in mammals. The mean fold increase in cord blood BFU-E, CFU-E and CFU-GM progenitor number at 5% O2 produced by 1.0 mg/ml HAo (15.6 μM; n=11) or HEMOLINK™ (15.6 μM; n=6), 100 μM hemin (n=10), 250 μM FeCl3 (n=6) or no addition (n=17-18), is shown FIG. 2. Results are expressed relative to control cells treated only with respective vehicles and cultured at ambient oxygen tensions (˜20% O2; fold expansion=1.0; *p<0.05, **p<0.01).
Erythroid progenitor colony formation assays were conducted as described in Example 1 except that cultures were initiated in the presence of Epo concentrations ranging from 0-2 U/ml. The mean fold increase in cord blood BFU-E, CFU-E and CFU-GM progenitor number produced by 1.0 mg/ml HAo (15.6 μM; n=9) or HEMOLINK™ (15.6 μM; n=6), 100 μM hemin (n=8), 250 μM FeCl3 (n=6), or no addition (n=9-10) in the presence of reduced Epo concentrations (0.2 U/ml) is shown in FIG. 3. Cultures were maintained at ambient oxygen tensions (˜20% O2) for 14 days. Results are expressed relative to control cells at 2 U/ml Epo treated only with the respective vehicles (solid line at fold expansion=1.0; *p<0.05, **p<0 01). Erythroid progenitor colonies were undetectable in the absence of Epo. […]

[1] = anemic male rats, two i.v. infusions one week apart

Molecule: HEMOLINK™: chemically crosslinked hemoglobin prepared by treating human hemoglobin with a polyaldehyde (O-raffinose)
- erythropoietic response of anemic female rats (anemic rats; anemic female rats): not significantly different from INFUFER™
- serum iron level at study termination (anemic rats; anemic female rats, two doses): 27.70 ± 9.88 mg/dL
- increase in hematocrit (anemic rats; [1]): significant increase
- increase in number of red blood cells (anemic rats; [1]): significant increase
- increase in number of reticulocytes (anemic rats; [1]): significant increase
- increase in total hemoglobin concentration (anemic rats; [1]): significant increase
- serum iron level at study termination (anemic rats; male rats, two infusions): 10.0 ± 1.95 mg/dL
- reduction of toxicity of ganciclovir to BFU-E (BFU-E; 1 mg/ml HEMOLINK plus 0-100 μM ganciclovir): about 10 fold
- fold increase in BFU-E number over untreated controls (no addition) at 0.2 U/ml Epo (BFU-E; 0.2 U/ml Epo, ambient O2): 3 fold
- fold increase in BFU-E at 5% O2 (BFU-E; 100 μM hemin): ~8 fold

Molecule: [Cl][Fe]([Cl])[Cl] [FeCl3]
- BFU-E progenitor number, fold increase (BFU-E; dose 1.0 μM): 1.2 fold
- BFU-E progenitor number, fold increase (BFU-E; dose 10 μM): 1.4 fold
- BFU-E progenitor number, fold increase (BFU-E; dose 250 μM): *1.7 fold

Molecule: HAo: adult human hemoglobin obtained from red blood cells and purified by displacement chromatography; uncross linked product
- fold increase in BFU-E number over untreated controls (no addition) at 0.2 U/ml Epo (BFU-E; 0.2 U/ml Epo, ambient O2): 3 fold
- fold increase in BFU-E at 5% O2 (BFU-E; 100 μM hemin): ~8 fold
- BFU-E progenitor number, fold increase (BFU-E; dose 10 μg/ml): 1.1 fold
- BFU-E progenitor number, fold increase (BFU-E; dose 100 μg/ml): 1.3 fold
- BFU-E progenitor number, fold increase (BFU-E; dose 500 μg/ml): **1.7 fold

Molecule: C=CC1=C(C)C2=Cc3c(C=C)c(C)c4[n]3[Fe-2]35([Cl])[n]6c(c(C)c(CCC(=O)O)c6=CC6=[N+]3C(=C4)C(C)=C6CCC(=O)O)=CC1=[N+]25 [hemin]
- BFU-E number at 0.2 U/ml Epo compared with untreated controls at 2 U/ml Epo (BFU-E; 0.2 U/ml Epo, ambient O2, 100 μM hemin): generated the same number of BFU-E as the untreated controls at 2 U/ml Epo
- fold increase in BFU-E at 5% O2 (BFU-E; 100 μM hemin): ~8 fold
- BFU-E progenitor number, fold increase (BFU-E; dose 1.0 μM): 0.9 fold
- BFU-E progenitor number, fold increase (BFU-E; dose 10 μM): 1.5 fold
- BFU-E progenitor number, fold increase (BFU-E; dose 250 μM): 2.2 fold

— patent US20020120098A1, “Enhanced stimulation of erythropoiesis” (priority 1996, published 2002)
